Values quoted from earlier work as cited in patent publication US12673067B2, “Methods, agents, and devices for local neuromodulation of autonomic nerves” (Tulavi Therapeutics, Inc., priority 2016, dated 2026).
Read-outs that look alike come from different tables or passages of the source.

Tests used:
GPR120 = molecular target: T1, GPR120 (Homo sapiens, UniProt Q5NUL3); settings: Ca2+ mobilization, fluorescent indicator
T1 sequence (Q5NUL3 1-361): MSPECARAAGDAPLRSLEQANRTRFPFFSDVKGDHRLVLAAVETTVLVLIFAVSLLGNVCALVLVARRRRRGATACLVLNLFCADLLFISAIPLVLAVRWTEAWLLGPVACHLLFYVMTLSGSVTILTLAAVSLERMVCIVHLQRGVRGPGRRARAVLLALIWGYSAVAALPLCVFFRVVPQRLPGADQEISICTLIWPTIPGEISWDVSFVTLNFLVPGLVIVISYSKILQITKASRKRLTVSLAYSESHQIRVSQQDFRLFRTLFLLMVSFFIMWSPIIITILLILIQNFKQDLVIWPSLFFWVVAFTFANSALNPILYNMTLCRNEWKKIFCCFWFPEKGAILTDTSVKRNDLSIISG

FFA1 [1] = molecular target: T2, FFA1 (Homo sapiens, UniProt O14842); settings: Ca2+ mobilization, fluorescent indicator
T2 sequence (O14842 whole entry): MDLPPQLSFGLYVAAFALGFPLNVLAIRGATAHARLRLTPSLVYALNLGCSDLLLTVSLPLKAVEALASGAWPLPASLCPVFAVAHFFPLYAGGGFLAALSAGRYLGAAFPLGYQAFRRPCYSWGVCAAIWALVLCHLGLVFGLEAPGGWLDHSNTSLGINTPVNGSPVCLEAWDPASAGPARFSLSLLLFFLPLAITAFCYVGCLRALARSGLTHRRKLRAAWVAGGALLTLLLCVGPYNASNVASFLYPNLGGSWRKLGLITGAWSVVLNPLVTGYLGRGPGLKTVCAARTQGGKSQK

PPARγ = molecular target: T3, PPARγ (Homo sapiens, UniProt P37231)
T3 sequence (P37231 1-505): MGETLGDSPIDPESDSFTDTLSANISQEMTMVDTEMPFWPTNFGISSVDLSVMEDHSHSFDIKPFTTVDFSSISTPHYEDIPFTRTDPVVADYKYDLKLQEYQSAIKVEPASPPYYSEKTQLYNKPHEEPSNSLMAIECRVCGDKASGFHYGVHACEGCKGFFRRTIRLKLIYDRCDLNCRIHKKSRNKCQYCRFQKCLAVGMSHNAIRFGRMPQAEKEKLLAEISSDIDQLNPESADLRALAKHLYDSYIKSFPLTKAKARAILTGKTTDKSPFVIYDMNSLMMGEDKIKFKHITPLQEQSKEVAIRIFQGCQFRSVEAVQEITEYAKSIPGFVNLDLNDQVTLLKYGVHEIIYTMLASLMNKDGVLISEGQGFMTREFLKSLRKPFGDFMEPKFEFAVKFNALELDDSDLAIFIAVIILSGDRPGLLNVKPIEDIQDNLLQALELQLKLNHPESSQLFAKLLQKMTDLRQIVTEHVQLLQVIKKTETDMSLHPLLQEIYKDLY

PPARδ = molecular target: T4, PPARδ (Homo sapiens, UniProt Q03181)
T4 sequence (Q03181 1-441): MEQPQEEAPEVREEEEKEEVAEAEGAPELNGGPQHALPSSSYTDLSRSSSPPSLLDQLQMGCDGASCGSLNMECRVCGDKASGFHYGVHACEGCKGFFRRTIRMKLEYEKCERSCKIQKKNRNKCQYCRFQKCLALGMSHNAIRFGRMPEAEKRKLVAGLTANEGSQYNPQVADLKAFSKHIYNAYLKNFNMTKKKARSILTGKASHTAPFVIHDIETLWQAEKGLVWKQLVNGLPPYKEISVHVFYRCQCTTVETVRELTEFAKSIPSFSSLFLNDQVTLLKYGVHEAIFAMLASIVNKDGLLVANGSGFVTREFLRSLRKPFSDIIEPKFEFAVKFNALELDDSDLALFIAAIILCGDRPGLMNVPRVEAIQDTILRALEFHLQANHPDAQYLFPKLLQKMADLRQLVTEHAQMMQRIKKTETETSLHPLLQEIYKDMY

PPARα = molecular target: T5, PPARα (Homo sapiens, UniProt Q07869)
T5 sequence (Q07869 1-468): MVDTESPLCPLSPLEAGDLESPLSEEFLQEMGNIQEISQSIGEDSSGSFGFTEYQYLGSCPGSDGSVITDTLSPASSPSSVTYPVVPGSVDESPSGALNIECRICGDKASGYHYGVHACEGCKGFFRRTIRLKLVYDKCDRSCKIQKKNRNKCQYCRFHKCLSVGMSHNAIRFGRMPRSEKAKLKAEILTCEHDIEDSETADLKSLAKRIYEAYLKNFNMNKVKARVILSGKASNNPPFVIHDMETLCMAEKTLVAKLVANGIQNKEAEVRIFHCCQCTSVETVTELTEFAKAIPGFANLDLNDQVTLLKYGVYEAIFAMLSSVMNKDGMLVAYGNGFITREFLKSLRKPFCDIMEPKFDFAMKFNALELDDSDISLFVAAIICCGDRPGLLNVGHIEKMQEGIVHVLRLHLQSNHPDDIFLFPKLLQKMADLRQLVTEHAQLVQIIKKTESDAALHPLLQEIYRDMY

FFA1 [2] = molecular target: T2, FFA1; settings: footnote a: ERK activation (Smith 2009) or aequorin reporter (Kotarsky 2003)
H+K+ATPase = molecular target: T6, H+K+ATPase (Oryctolagus cuniculus, UniProt P27112); settings: microsomal membranes from rabbit fundic mucosa; read-out: IC50, inhibition of isolated H+K+ATPase enzyme activity
T6 construct: a preparation of microsomal membranes from rabbit fundic mucosa; from tissue; host or cells: rabbit fundic mucosa, microsomal membranes
T6 sequence (P27112 whole entry): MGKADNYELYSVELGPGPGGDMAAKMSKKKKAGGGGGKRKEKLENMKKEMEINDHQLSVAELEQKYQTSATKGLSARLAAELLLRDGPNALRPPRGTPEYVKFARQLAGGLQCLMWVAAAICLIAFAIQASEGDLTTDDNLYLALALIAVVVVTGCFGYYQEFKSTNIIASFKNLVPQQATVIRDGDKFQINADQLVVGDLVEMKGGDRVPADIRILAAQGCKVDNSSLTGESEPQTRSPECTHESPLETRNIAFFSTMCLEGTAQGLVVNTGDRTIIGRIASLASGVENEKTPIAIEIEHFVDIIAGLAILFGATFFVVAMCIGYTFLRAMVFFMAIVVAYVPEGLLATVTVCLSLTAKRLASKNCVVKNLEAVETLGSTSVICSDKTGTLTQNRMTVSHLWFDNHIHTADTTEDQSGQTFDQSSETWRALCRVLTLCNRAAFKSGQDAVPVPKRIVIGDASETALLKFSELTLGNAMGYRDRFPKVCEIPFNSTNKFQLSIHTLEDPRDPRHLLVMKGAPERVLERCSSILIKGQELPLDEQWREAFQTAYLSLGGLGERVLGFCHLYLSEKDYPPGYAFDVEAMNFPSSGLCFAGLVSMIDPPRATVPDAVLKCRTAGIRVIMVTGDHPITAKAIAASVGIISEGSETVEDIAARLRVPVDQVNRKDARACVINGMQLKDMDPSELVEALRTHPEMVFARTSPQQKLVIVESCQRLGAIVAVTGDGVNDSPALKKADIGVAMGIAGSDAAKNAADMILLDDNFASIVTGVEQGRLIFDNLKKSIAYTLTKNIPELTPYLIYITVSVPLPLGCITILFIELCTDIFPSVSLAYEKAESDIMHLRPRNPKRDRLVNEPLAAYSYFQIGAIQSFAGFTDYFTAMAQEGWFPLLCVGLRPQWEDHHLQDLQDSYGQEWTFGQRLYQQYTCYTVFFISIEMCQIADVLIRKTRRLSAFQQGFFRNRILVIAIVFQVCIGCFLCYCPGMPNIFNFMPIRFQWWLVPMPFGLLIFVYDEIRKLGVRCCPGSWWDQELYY
T6 sequence (P18597 whole entry partner): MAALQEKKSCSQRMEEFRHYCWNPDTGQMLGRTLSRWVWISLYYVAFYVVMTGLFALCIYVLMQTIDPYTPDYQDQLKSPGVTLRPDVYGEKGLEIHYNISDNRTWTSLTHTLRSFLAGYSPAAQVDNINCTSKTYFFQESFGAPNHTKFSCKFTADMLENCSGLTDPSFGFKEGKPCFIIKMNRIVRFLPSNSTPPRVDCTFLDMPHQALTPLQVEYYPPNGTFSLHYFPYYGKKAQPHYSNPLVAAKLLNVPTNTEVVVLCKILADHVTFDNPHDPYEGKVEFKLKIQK

[3] = system: organic anion transporters (OAT); settings: at 0.5-1 mM
Aquaporin 4 (AQP4) = settings: pretreatment, mouse focal cerebral ischemia
FFA3 = molecular target: T7, FFA3 (Homo sapiens, UniProt O14843)
T7 sequence (O14843 1-346): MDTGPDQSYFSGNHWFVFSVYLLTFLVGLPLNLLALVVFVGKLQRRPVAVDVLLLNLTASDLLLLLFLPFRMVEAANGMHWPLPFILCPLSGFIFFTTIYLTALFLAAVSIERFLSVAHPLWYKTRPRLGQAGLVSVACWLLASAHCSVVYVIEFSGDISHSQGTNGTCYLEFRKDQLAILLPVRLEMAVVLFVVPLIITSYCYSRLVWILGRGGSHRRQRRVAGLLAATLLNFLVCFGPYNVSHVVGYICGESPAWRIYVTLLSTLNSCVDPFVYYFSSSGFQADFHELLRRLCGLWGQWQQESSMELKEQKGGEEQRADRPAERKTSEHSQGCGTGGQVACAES

FFA1 [4] = molecular target: T2, FFA1; settings: footnote b: insulin secretion/DMR assay
FFA2 = molecular target: T8, FFA2 (Homo sapiens, UniProt O15552)
T8 sequence (O15552 1-330): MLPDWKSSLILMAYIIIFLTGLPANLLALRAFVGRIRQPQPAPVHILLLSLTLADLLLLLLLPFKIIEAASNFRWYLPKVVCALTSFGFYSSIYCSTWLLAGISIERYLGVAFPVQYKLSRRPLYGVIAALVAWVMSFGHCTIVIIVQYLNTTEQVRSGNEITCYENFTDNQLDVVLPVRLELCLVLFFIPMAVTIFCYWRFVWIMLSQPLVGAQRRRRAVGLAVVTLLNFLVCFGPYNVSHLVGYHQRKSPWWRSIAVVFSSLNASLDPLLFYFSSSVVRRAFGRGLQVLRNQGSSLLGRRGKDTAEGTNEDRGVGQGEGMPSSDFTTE

KCC2 = molecular target: T9, KCC2 (Homo sapiens, UniProt Q9H2X9)
T9 sequence (Q9H2X9 1-1139): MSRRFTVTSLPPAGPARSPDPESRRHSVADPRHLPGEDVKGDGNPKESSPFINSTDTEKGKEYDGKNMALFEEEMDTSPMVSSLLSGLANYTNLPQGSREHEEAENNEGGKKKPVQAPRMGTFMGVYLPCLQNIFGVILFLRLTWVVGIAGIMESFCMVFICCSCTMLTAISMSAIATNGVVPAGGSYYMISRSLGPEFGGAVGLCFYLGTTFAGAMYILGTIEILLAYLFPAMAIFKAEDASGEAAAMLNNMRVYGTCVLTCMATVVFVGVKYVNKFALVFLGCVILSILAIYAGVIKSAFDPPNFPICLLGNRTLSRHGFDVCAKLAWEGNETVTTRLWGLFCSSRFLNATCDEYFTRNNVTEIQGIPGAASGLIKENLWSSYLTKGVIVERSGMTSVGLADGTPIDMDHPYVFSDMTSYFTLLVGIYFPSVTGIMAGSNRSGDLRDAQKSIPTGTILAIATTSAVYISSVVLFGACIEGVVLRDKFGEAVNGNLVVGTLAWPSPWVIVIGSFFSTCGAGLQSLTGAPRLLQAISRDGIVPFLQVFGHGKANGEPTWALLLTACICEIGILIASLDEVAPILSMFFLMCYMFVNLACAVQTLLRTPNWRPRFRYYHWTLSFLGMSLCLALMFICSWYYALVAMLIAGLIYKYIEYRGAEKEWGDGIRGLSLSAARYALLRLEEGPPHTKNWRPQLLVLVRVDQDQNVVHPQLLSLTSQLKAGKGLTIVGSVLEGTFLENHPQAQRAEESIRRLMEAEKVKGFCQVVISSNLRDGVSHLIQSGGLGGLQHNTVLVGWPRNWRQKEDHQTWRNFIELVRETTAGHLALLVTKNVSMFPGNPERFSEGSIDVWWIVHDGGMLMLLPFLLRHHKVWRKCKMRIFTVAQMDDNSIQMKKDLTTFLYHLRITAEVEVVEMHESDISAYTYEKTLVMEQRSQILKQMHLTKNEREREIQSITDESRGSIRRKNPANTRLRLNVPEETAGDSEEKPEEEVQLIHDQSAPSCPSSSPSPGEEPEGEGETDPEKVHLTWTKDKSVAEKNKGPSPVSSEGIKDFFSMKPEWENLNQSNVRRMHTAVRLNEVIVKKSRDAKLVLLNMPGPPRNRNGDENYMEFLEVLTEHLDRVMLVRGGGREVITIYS

[5] = in vivo
[6] = rats
stellate ganglion = settings: dog, in vivo

In the case of `O=c1c2ccc(O)c(O)c2oc2c(O)c(O)ccc12` [3,4,5,6-Tetrahydroxyxanthone], the “affinity of Na/K ATPase pump inhibition” value (Na/K ATPase) is listed as “comparable to ouabain”.

For `CC/C=C\C/C=C\C/C=C\C/C=C\C/C=C\C/C=C\CCC(=O)O` [DHA (C22:6), DHA], the “GPR120 pEC50” value (GPR120) is given as 5.4 and the “FFA1 pEC50” value (FFA1 [1]) is given as 5.4-6.0.

For `O=C(O)CCc1ccc(NCc2cccc(Oc3ccccc3)c2)cc1` [GW9508], the “FFA1 pEC50” value (FFA1 [1]) is given as 6.6-7.3, the “pEC50 for PPARγ” value (PPARγ) is given as 4.9 and the “pEC50 for PPARδ” value (PPARδ) is given as 4.0. The “pEC50 for PPARα” value (PPARα) was 4.0.

For `O=C(O)CCCc1ccc(OCCN(c2ccccc2)c2ccccn2)cc1` [NCG21 (Cpd 12)], the “GPR120 pEC50” value (GPR120) is given as 5.9, the “FFA1 pEC50” value (FFA1 [1]) is given as 4.7 and the PPARγ agonist activity (PPARγ; at 100 μM) is given as “Lacks PPARα, δ, and γ”. For the same compound, the PPARδ agonist activity (PPARδ; at 100 μM) was “Lacks PPARα, δ, and γ” and the PPARα agonist activity (PPARα; at 100 μM) was “Lacks PPARα, δ, and γ”.

For `CCCCCCCC/C=C\CCCCCCCC(=O)O` [Oleic acid (C18:1), Oleic acid], the “FFA1 pEC50” value (FFA1 [1]) is given as 4.4-5.7.

In the case of `CCCCCCCCCCCCCCCC(=O)O` [Palmitic acid (C18:0), Palmitic acid], the “FFA1 pEC50” value (FFA1 [1]) is listed as 5.2-5.3.

In the case of `CN(CCOc1ccc(CC2SC(=O)NC2=O)cc1)c1ccccn1` (centres unmarked) [Rosiglitazone], the “FFA1 pEC50” value (FFA1 [2]) is given as 5.0-5.6^a.

In the case of `Cc1ccc(CN(Cc2ccc(-c3ccccc3S(=O)(=O)NC#N)cc2)C(=O)c2ccccc2Cl)cc1` [S0859], the “inhibition of Na+-H+ exchange (NHE)” value (Na+-H+ exchange (NHE)) is listed as “does not inhibit”.

In the case of `Cc1nc2c(OCc3ccccc3)nccn2c1N` [SCH 32651], the IC50 (H+K+ATPase) is given as 200 µM.

For `Cc1nc2c(OCc3ccccc3)cccn2c1CC#N` [SCH-28080], the IC50 (H+K+ATPase) is listed as 2.5 µM.

For `C=C1C[C@@]23CC[C@H]4[C@@](C)(CCC[C@@]4(C)C(=O)O[C@@H]4O[C@H](CO)[C@@H](O)[C@H](O)[C@H]4O)[C@@H]2CC[C@]1(O[C@@H]1O[C@H](CO)[C@@H](O)[C@H](O)[C@H]1O[C@@H]1O[C@H](CO)[C@@H](O)[C@H](O)[C@H]1O)C3` [Stevioside], the genotoxic effects (cultured mammalian cells) is given as “genotoxic effects” and the “interaction with organic anion transporters (OAT)” value [3] is given as “no interaction”.

In the case of `O=C(Nc1nncs1)c1cccnc1` [TGN-020], the “volume of brain edema associated with ischemic injury” value (Aquaporin 4 (AQP4)) is listed as “significantly reduced”.

For `Cc1ccccc1C#Cc1ccc(CCC(=O)O)cc1` [TUG424], the “activity at FFA3” value (FFA3) is listed as “No activity at FFA2 and FFA3 reported (TUG424)”, the “FFA1 pEC50” value (FFA1 [4]) is listed as 7.5^b and the “activity at FFA2” value (FFA2) is listed as “No activity at FFA2 and FFA3 reported (TUG424)”.

For `Cc1csc(NC(=O)CSc2ccc(-c3ccccc3)nn2)n1` [VU024055 1], the “selectivity for KCC2 over NKCCI” value (KCC2) is listed as “selective”.

For `N=C(N)NC(=O)c1cnn(-c2cccc3ncccc23)c1C1CC1` [Zoniporide], the “swelling of human platelets” value (human platelets) is listed as “inhibits”, the peripheral sensory axonopathy [5] is listed as “causes peripheral sensory axonopathy” and the cardiac contractile dysfunction [6] is listed as “attenuates”.

For “NGF: nerve growth factor injected into the stellate ganglion of dogs”, the QTc (stellate ganglion) is given as “shortened”, the QTc interval (stellate ganglion) is given as “prolonged” and the SCD (stellate ganglion) is given as “did not cause SCD”. For the same compound, the “risk of SCD” value (stellate ganglion) was 50%.
